Measurements published in ChEMBL document CHEMBL3045221, “A 2D image-based approach for modelling some glycogen synthase kinase 3 inhibitors” (Med Chem Res, 2007).

target: Glycogen synthase kinase-3 beta (Homo sapiens, UniProt P49841); format: cell-based, Sf9
Sequence (P49841 whole entry): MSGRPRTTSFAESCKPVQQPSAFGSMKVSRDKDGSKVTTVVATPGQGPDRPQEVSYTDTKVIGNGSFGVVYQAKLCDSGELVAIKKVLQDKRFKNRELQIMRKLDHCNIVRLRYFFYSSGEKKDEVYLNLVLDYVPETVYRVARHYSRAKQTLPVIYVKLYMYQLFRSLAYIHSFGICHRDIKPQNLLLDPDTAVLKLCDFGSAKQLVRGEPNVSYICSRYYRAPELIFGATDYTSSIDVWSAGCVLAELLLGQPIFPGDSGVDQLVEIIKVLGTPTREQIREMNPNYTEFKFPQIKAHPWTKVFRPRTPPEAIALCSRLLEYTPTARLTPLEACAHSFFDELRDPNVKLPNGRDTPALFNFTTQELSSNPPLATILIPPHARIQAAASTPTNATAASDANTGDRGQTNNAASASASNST
Description: Inhibition of GSK3beta (unknown origin) expressed in Sf9 cells using GS1 as substrate and [gamma32]ATP after 30 min by scinitllation counting

Row | IC50 [nM] | Ki [nM] | SMILES
1 | 3.98 | – | CN1CCN(c2cnc(NCCNc3ccc([N+](=O)[O-])c(N)n3)nc2-c2ccc(Cl)cc2Cl)C(=O)C1
2 | 0.708 | – | O=C1NC(=O)C(c2cnc3cccnn23)=C1c1cn2c3c(cccc13)CN(C(=O)N1CCCCC1)CC2 [BISARYLMALEIMIDE 1]
3 | 0.794 | – | O=C1NC(=O)C(c2cncc3ccoc23)=C1c1cn2c3c(cccc13)CN(C(=O)N1CCOCC1)CC2 [BISARYLMALEIMIDE 2]
4 | 129 | – | CC(=O)NC1=NC(=O)/C(=C2\CCNC(=O)c3c2cc(Br)n3C(C)=O)N1 [HYMENIALDISINE 2]
5 | 3.98 | – | CC(=O)O/N=C1/C(=C2/C(=O)Nc3cc(Cl)c(Cl)cc32)Nc2ccccc21 [INDIRUBIN 1]
6 | 5.01 | – | O=C1Nc2ccc(Br)cc2/C1=C1/Nc2ccccc2/C1=N\O [INDIRUBIN 2]
7 | 21.9 | – | O=C1NC(=O)C2=C1c1cn(c3ccccc13)CCOCCOCCOCCn1cc2c2ccccc21 [INDOLYLYLMALEIMIDE 2]
8 | – | 12 | COc1ccc(Nc2nccc(-c3cnn4ncccc34)n2)cc1OC [PYRAZOLOPYRIDAZINE 2]
9 | 1.58 | – | CN(C)CCNC(=O)c1ccc(/C=N/Nc2ncnc3c2cnn3-c2cccc3[nH]cnc23)cc1 [PYRAZOLOPYRIMIDINE 1]
